Laboratory results as given in patent publication US7674787B2, “Conformationally constrained Smac mimetics and the uses thereof” (The Regents of the University of Michigan, priority 2004, dated 2010).
Values belong to the molecule of their own block, whether it stands above or below them.

Columns and labels:
XIAP BIR3 = XIAP BIR3 (Homo sapiens, UniProt P98170); assay: biochemical
[1] = tested on: MDA-MB-231 (subclone 2LMP) breast cancer cells; assay: Cell growth inhibition in combination with TRAIL, WST-8; format: cell-based, human; conditions: 4 days
Experimental: To test the ability of SH-122 to enhance the cell growth inhibitory activity of TRAIL, MDA-MB-231 (subclone 2LMP) breast cancer cells were seeded in 96-well plates with various concentrations of TRAIL in the presence of increasing amounts of SH-122. The cells were then incubated at 37° C. with 5% CO2 for 4 days, followed by detection of cell viability with WST-8.

[2] = tested on: normal prostate epithelial cells; assay: Cell growth inhibition, WST-8, normal cells; format: cell-based; conditions: 5 days
Experimental: (§1) To test the effect of [6.3.0] Smac mimetics in inhibition of cell growth in human cancer cells, compounds were administered to several different cancer cell lines. BT-549, MDA-MB-231 (subclone 2LMP), and MDA-MB-231 (ATCC) human breast cancer cells and PC-3 human prostate cancer cells were seeded in 96-well plates with increasing concentrations of the compounds. To assay for the selectivity of the compounds for cancer cells, normal prostate epithelial cells were also tested. The cells were then incubated at 37° C. with 5% CO2 for 5 days, followed by detection of cell viability with WST-8. Untreated cells were used as 100% growth. The compounds tested were SH-109, SH-122 and SH-123 (Table 6).

[3] = tested on: BT-549, MDA-MB-231 (subclone 2LMP), MDA-MB-231 (ATCC) and PC-3 cells; assay: Cell growth inhibition, WST-8, cancer cell lines; format: cell-based, human
Experimental: as §1

Jurkat-Bir3 cells = assay: Sub-G1 apoptosis in Jurkat cells expressing XIAP-Bir3
MDA-231 cells = assay: Apoptosis by Annexin V-FITC/propidium iodide in MDA-231 cells; format: cell-based, human
Experimental: Similar experiments were performed using the breast cancer cell line MDA-231. MDA-231 cells in 6-well plates were treated with SH-102 and CDDP, alone or in combination, for 42 hours. Cells were collected and stained with Annexin V-FITC and propidium iodide. The fluorescence of Annexin V-FITC and propidium iodide of individual cells was analyzed by flow cytometry. 25 μM and 50 μM CDDP induced about 25% and 42% of MDA-231 cells to undergo apoptosis as compared to control cells, respectively (FIG. 22). […] Combination of 25 and 50 μM CDDP and 10 μM SH-102 induced about 35% and 75% apoptosis over control cells, respectively (FIG. 22).

[4] = tested on: MDA-435, MDA-468, and T47D cells; assay: Cell growth inhibition, WST-8, breast cancer cell lines; format: cell-based, human; conditions: Homo sapiens, 120 h, 5 days, each of the three cell lines
Experimental: To test the effect of Smac mimetics by themselves in inhibition of cell growth in human cancer cells, SH-102 was administered to three different breast cancer cell lines. MDA-435, MDA-468, and T47D cells were seeded in 96-well plates with increasing concentrations of SH-102, Smac8, or Smac8-C. The cells were then incubated at 37° C. with 5% CO2 for 5 days, followed by detection of cell viability with WST-8 (10% Dojindo solution in IMEM with 10% FCS). OD values at 450 nm with reference at 650 nm were read approximately 3 hours later. Untreated cells were used as 100% growth. […]. […] (FIGS. 26A-26C).

PC-3 cells = assay: Apoptosis by Annexin V-FITC staining in PC-3 cells; format: cell-based, human
Excerpt: SH-97, a peptido-mimetic in which the side chain of alanine has been replaced with an ethyl group and the isoleucine has been replaced with a diphenylmethyl group, was used to test the basic premise. Of note, SH-97 still has two natural amino acids (valine and proline) and one natural peptide bond. […] The experiment used PC-3 cells which express high levels of XIAP and cIAP-1/2 proteins and cisplatin (CDDP) as the chemotherapeutic drug. CDDP is a DNA damaging agent and can effectively induce apoptosis in PC-3 cells and is also a clinically used chemotherapeutic drug for prostate cancer.
PC-3 cells were treated with CDDP, Smac peptides and mimetics alone or in combination for 42 hours and apoptosis was analyzed by Annexin V-FITC staining. […] Combination of 25 μM CDDP and 10 μM or 25 μM SH-97 induced 29.3%±1.9% and 35.8%±0.4% apoptosis over control cells, respectively (FIG. 18A).
Similar experiments were performed with SH-102 (Table 5). PC-3 cells in 6-well plates were treated with SH-102 and CDDP, alone or in combination, for 42 hours. Cells were collected and stained with Annexin V-FITC and propidium iodide. The fluorescence of Annexin V-FITC and propidium iodide of individual cells was analyzed by flow cytometry. […] Combination of 25 μM CDDP and 10 μM SH-102 induced 32% apoptosis over control cells (FIG. 19).
The same experiment was performed using TAXOTERE (docetaxel), another cancer chemotherapeutic drug. PC-3 cells in 6-well plates were treated with SH-102 and TAXOTERE, alone or in combination, for 42 hours. Cells were collected and stained with Annexin V-FITC and propidium iodide. The fluorescence of Annexin V-FITC and propidium iodide of individual cells was analyzed by flow cytometry. […] Combination of 10 μM TAXOTERE and 10 μM SH-102 induced about 18% apoptosis over control cells (FIG. 21).

Jurkat-XIAP cells = assay: Sub-G1 apoptosis in Jurkat cells overexpressing XIAP
Jurkat-Vec cells = assay: Sub-G1 apoptosis in Jurkat cells with control vector; format: cell-based, human; conditions: 10 μM etoposide alone, 15 hours
Experimental: Data were analyzed to calculate the percentage of sub-G1 cells (apoptotic cells) using CellQuest software (Becton Dickinson).

XIAP = XIAP (Homo sapiens, UniProt P98170); conditions: background statement; cited from earlier work
Chain of XIAP (P98170 whole entry): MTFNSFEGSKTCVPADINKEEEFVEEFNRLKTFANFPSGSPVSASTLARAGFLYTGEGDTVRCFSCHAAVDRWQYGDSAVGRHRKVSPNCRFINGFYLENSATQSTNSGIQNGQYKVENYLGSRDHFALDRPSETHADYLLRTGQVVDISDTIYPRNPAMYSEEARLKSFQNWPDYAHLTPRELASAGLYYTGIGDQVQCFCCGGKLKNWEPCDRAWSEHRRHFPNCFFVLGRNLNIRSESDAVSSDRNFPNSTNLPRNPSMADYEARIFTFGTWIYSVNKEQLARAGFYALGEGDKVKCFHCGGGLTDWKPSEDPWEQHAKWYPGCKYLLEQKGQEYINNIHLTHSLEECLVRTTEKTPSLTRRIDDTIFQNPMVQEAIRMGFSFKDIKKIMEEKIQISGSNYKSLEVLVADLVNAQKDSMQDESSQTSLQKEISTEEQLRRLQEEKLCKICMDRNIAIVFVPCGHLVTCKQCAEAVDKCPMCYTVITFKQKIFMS

Chain of XIAP BIR3 (P98170 241-356): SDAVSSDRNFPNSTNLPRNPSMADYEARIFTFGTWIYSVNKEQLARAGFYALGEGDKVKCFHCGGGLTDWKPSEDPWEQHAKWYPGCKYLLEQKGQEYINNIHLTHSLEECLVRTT

Ki (XIAP BIR3): 30 nM
decrease of the IC50 of TRAIL ([1]; 250 nM SH-122 with TRAIL): approximately ten-fold
Molecule: CC[C@H](NC)C(=O)N[C@H]1CCCC[C@H]2CC[C@@H](C(=O)NC(c3ccccc3)c3ccccc3)N2C1=O [SH-122]
cell growth inhibition (in words) [2]: no cell growth inhibition effect
cell growth inhibition (in words) ([3]; 5 days, WST-8, each of the cancer cell lines): inhibited the cell growth
rank of potency in cell growth inhibition ([3]; among SH-109, SH-122, SH-123, each cell line): most potent

IC50 [4]: 30000 to 70000 nM
Molecule: CC[C@H](N)C(=O)N[C@H]1CCC[C@H]2CC[C@@H](C(=O)NC(c3ccccc3)c3ccccc3)N2C1=O [Compound 34]
apoptosis (Jurkat-Bir3 cells; etoposide + 10 μM SH-102): about 25%
apoptosis (Jurkat-Bir3 cells; etoposide + 20 μM SH-102): ~30%
ability to sensitize cells to CDDP (MDA-231 cells; 10 μM SH-102 compared with 100 μM pSmac8-C): as great as that of 100 μM pSmac8-C
apoptosis over control cells (MDA-231 cells; 25 μM CDDP + 10 μM SH-102, 42 hours): about 35%
apoptosis over control cells (MDA-231 cells; 50 μM CDDP + 10 μM SH-102, 42 hours): ~75%
apoptosis over control cells (PC-3 cells; 10 μM TAXOTERE + 10 μM SH-102, 42 hours): about 18%
apoptosis over control cells (PC-3 cells; 25 μM CDDP + 10 μM compound, 42 hours): 32%
apoptosis compared to untreated cancer cells (PC-3 cells; compound alone up to 100 μM, 42 hours): did not induce significantly more apoptosis
effectiveness in overcoming protective effect of XIAP (Jurkat-XIAP cells; 10 μM SH-102 compared with 50 μM Smac8-C): at least as effective as 50 μM Smac8-C
apoptosis (sub-G1) (Jurkat-XIAP cells; 10 μM SH-102 in combination with etoposide, 15 hours): about 15%

Molecule: COc1cc([C@@H]2c3cc4c(cc3[C@@H](O[C@@H]3O[C@@H]5CO[C@@H](C)O[C@H]5[C@H](O)[C@H]3O)[C@H]3COC(=O)[C@H]23)OCO4)cc(OC)c1O [etoposide, reference compound]
apoptosis (Jurkat-Bir3 cells; 20 μM etoposide alone): about 18%
apoptotic cells (sub-G1) (Jurkat-Vec cells): about 50%
apoptotic cells (sub-G1) (Jurkat-XIAP cells; 10 μM etoposide alone, 15 hours): about 10%

B1: TRAIL: tumor necrosis factor-related apoptosis-inducing ligand (protein, UniProt P50591 1-281, looked up)
Tumor necrosis factor ligand …: MAMMEVQGGPSLGQTCVLIVIFTVLLQSLCVAVTYVYFTNELKQMQDKYSKSGIACFLKEDDSYWDPNDEESMNSPCWQVKWQLRQLVRKMILRTSEETISTVQEKQQNISPLVRERGPQRVAAHITGTRGRSNTLSSPNSKNEKALGRKINSWESSRSGHSFLSNLHLRNGELVIHEKGFYYIYSQTYFRFQEEIKENTKNDKQMVQYIYKYTSYPDPILLMKSARNSCWSKDAEYGLYSIYQGGIFELKENDRIFVSVTNEHLIDMDHEASFFGAFLVG
cell growth inhibition (in words) ([1]; TRAIL by itself): inhibited the growth of the cells in a dose dependent fashion

B2: mature Smac protein: mature Smac protein, endogenous inhibitor of XIAP (protein, UniProt Q9NR28 22-239, looked up)
Diablo IAP-binding …: LCVPVVANFKKRCFSELIRPWHKTVTIGFGVTLCAVPIAQKSEPHSLSSEALMRRAVSLVTDSTSTFLSQTTYALIEAITEYTKAVYTLTSLYRQYTSLLGKMNSEEEDEVWQVIIGARAEMTSKHQEYLKLETTWMTAVGLSEMAAEAAYQTGADQASITARNHIQLVKLQVEEVHQLSRKAETKLAEAQIEELRQKTQEEGEERAESEQEAYLRED
Kd (XIAP): 420 nM
